Data as given in patent US12084472B2 (Ardelyx, Inc., priority 2015, dated 2024).

Biological target: T1, human TGR5 (Homo sapiens, UniProt Q8TDU6)
T1 construct: expressed in transfected cells; host or cells: HEK293
T1 sequence (Q8TDU6 1-330): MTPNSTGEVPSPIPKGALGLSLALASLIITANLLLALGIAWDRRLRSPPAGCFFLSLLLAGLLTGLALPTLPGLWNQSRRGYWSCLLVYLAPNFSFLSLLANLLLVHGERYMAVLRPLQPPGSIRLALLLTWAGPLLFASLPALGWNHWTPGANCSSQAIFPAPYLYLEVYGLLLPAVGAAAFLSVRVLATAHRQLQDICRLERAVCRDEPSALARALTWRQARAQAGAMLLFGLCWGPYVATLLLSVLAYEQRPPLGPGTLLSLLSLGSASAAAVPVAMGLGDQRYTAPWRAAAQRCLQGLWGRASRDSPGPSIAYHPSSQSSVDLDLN
Experiment: Cell-based TGR5 assay (cAMP generation, HTRF)
Details: HEK293 cells stably transfected with human TGR5; cAMP by HTRF; 30 minutes at 37° C.; read-out: pEC50 Human TGR5 (converted)
Procedure, shortened: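 Read-out was HTRF detection of cAMP, converted to concentration via a standard curve and fitted (3-parameter logistic) for pEC50 and maximal response. Agonist stimulation used HEK293 cells stably transfected with human TGR5, incubated 30 min at 37° C in IBMX-containing buffer at 0.05 nM to 10 μM compound.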

Row | SMILES | EC50 [nM]
1 | O=C(O)CCC(=O)N(CCCCc1cc(Cl)c(COC2(c3cnccc3-c3ccccc3OC3CC3)CC2)cc1Cl)C[C@H](O)[C@@H](O)[C@H](O)[C@H](O)CO (stereo in doubt) [Compound I-187, 3-({4-[2,5-dichloro-4-({1-[4-(2-cyclopropoxyphenyl)pyridin-3-yl]cyclopropoxy}methyl)phenyl]butyl}[(2S,3R,4R,5R)-2,3,4,5,6-pentahydroxyhexyl]carbamoyl)propanoic acid] | < 100
2 | O=C([C@@H](O)[C@@H](O)[C@H](O)[C@@H](O)CO)N(CCCCSc1ccc(Cl)c(COC2(c3cnccc3-c3ccccc3OC3CC3)CC2)c1)C1CCS(=O)(=O)CC1 [Compound I-569, (2S,3S,4R,5S)-N-(4-{[4-chloro-3-({1-[4-(2-cyclopropoxyphenyl)pyridin-3-yl]cyclopropoxy}methyl)phenyl]sulfanyl}butyl)-N-(1,1-dioxo-1λ^6-thian-4-yl)-2,3,4,5,6-pentahydroxyhexanamide] | 126 to 1000
3 | CCCN(CCCCc1cc(Cl)c(COC2(c3cnccc3-c3ccccc3OC3CC3)CC2)cc1Cl)C(=O)[C@@H](O)[C@@H](O)[C@H](O)[C@@H](O)CO [Compound I-205, (2S,3S,4R,5S)-N-{4-[2,5-dichloro-4-({1-[4-(2-cyclopropoxyphenyl)pyridin-3-yl]cyclopropoxy}methyl)phenyl]butyl}-2,3,4,5,6-pentahydroxy-N-propylhexanamide] | < 100
4 | O=C([C@@H](O)[C@@H](O)[C@H](O)[C@@H](O)CO)N(CCCCCSc1ccc(Cl)c(COC2(c3cnccc3-c3ccccc3OC3CC3)CC2)c1)CCOCCO [Compound I-489, (2S,3S,4R,5S)-N-(5-[[4-chloro-3-([1-[4-(2-cyclopropoxyphenyl)pyridin-3-yl]cyclopropoxy]methyl)phenyl]sulfanyl]pentyl)-2,3,4,5,6-pentahydroxy-N-[2-(2-hydroxyethoxy)ethyl]hexanamide] | < 100
5 | CC(C)Oc1ccccc1-c1ccncc1C1(NCc2cc(Cl)ccc2Cl)CC1 [Compound I-2, N-[(2,5-dichlorophenyl)methyl]-1-{4-[2-(propan-2-yloxy)phenyl]pyridin-3-yl}cyclopropan-1-amine] | < 100
6 | CSc1cnc(C)cc1CNC1(c2cnccc2-c2ccccc2OC2CC2)CC1 [Compound I-42, 1-[4-(2-cyclopropoxyphenyl)pyridin-3-yl]-N-{[2-methyl-5-(methylsulfanyl)pyridin-4-yl]methyl}cyclopropan-1-amine] | < 100
7 | CCCN(C[C@H](O)[C@@H](O)[C@H](O)[C@H](O)CO)C(=O)CCCSc1ccc(Cl)c(COC2(c3cnccc3-c3ccccc3OC3CC3)CC2)c1 [Compound I-666, 4-{[4-chloro-3-({1-[4-(2-cyclopropoxyphenyl)pyridin-3-yl]cyclopropoxy}methyl)phenyl]sulfanyl}-N-[(2S,3R,4R,5R)-2,3,4,5,6-pentahydroxyhexyl]-N-propylbutanamide] | < 100
8 | C[C@H](CCCC(=O)O)c1ccc(Cl)c(CNC2(c3cnccc3-c3ccccc3OC3CC3)CC2)c1 (single isomer, unassigned) [Compound I-247] | < 100
9 | Cc1ccc(SCCCC(=O)NC[C@H](O)[C@@H](O)[C@H](O)[C@H](O)CO)cc1COC1(c2cnccc2-c2ccccc2OC2CC2)CC1 [Compound I-651, 4-{[3-({1-[4-(2-cyclopropoxyphenyl)pyridin-3-yl]cyclopropoxy}methyl)-4-methylphenyl]sulfanyl}-N-[(2S,3R,4R,5R)-2,3,4,5,6-pentahydroxyhexyl]butanamide] | < 100
10 | Cc1cc(COC2(c3cnccc3-c3ccccc3OC3COC3)CC2)c(Cl)cc1CCCCNC(=O)N(C)C[C@H](O)[C@@H](O)[C@H](O)[C@H](O)CO [Compound I-191, 1-(4-{5-chloro-2-methyl-4-[(1-{4-[2-(oxetan-3-yloxy)phenyl]pyridin-3-yl}cyclopropoxy)methyl]phenyl}butyl)-3-methyl-3-[(2S,3R,4R,5R)-2,3,4,5,6-pentahydroxyhexyl]urea] | < 100
11 | CN(Cc1cc(Cl)ccc1Cl)C1(c2cnccc2-c2ccccc2OC2CC2)CC1 [Compound I-58, 1-[4-(2-cyclopropoxyphenyl)pyridin-3-yl]-N-[(2,5-dichlorophenyl)methyl]-N-1-amine] | 1260 to 10000

The next lines start with the values.

Row | EC50 [nM] | SMILES
12 | < 100 | Cc1ccc(C(C)CCCC(=O)N(CCCS(C)(=O)=O)C[C@H](O)[C@@H](O)[C@H](O)[C@H](O)CO)cc1CNC1(c2cnccc2-c2ccccc2OC2CC2)CC1 (stereo partly drawn) [Compound I-370, 5-{3-[({1-[4-(2-cyclopropoxyphenyl)pyridin-3-yl]cyclopropyl}amino)methyl]-4-methylphenyl}-N-(3-methanesulfonylpropyl)-N-[(2S,3R,4R,5R)-2,3,4,5,6-pentahydroxyhexyl]hexanamide]
13 | < 100 | CC(CCCCN(C)C(=O)NC[C@H](O)[C@@H](O)[C@H](O)[C@H](O)CO)c1ccc(Cl)c(CNC2(c3cnccc3-c3ccccc3OC3CC3)CC2)c1 (stereo partly drawn) [Compound I-269, 1-(5-{4-chloro-3-[({1-[4-(2-cyclopropoxyphenyl)pyridin-3-yl]cyclopropyl}amino)methyl]phenyl}hexyl)-1-methyl-3-[(2S,3R,4R,5R)-2,3,4,5,6-pentahydroxyhexyl]urea]
14 | < 100 | CC(CCCCCNC(=O)[C@@H](O)[C@@H](O)[C@H](O)[C@@H](O)CO)c1ccc(Cl)c(CNC2(c3cnccc3-c3ccccc3OC3CC3)CC2)c1 (stereo partly drawn) [Compound I-280, (2S,3S,4R,5S)-N-(6-{4-chloro-3-[({1-[4-(2-cyclopropoxyphenyl)pyridin-3-yl]cyclopropyl}amino)methyl]phenyl}heptyl)-2,3,4,5,6-pentahydroxyhexanamide]
15 | < 100 | O=C(COCC1CN(S(=O)(=O)c2ccc(Cl)c(COC3(c4cnccc4-c4ccccc4OC4CC4)CC3)c2)C1)NC[C@H](O)[C@@H](O)[C@H](O)[C@H](O)CO [Compound I-456, 2-({1-[4-chloro-3-({1-[4-(2-cyclopropoxyphenyl)pyridin-3-yl]cyclopropoxy}methyl)benzenesulfonyl]azetidin-3-yl}methoxy)-N-[(2S,3R,4R,5R)-2,3,4,5,6-pentahydroxyhexyl]acetamide]
16 | < 100 | CN(C[C@H](O)[C@@H](O)[C@H](O)[C@H](O)CO)C(=O)CCCSc1ccc(Cl)c(CNC2(c3cnccc3-c3ccccc3OC3CC3)CC2)c1 [Compound I-650, 4-({4-chloro-3-[({1-[4-(2-cyclopropoxyphenyl)pyridin-3-yl]cyclopropyl}amino)methyl]phenyl}sulfanyl)-N-methyl-N-[(2S,3R,4R,5R)-2,3,4,5,6-pentahydroxyhexyl]butanamide]
17 | < 100 | O=C(NCCCCc1cc(Cl)c(COC2(c3cnccc3-c3ccccc3OC3CC3)CC2)cc1Cl)NC[C@H](O)[C@@H](O)[C@H](O)[C@H](O)CO [Compound I-141, 1-{4-[2,5-dichloro-4-({1-[4-(2-cyclopropoxyphenyl)pyridin-3-yl]cyclopropoxy}methyl)phenyl]butyl}-3-[(2S,3R,4R,5R)-2,3,4,5,6-pentahydroxyhexyl]urea]
18 | 126 to 1000 | CCOC(=O)NCCN(CCCSc1ccc(Cl)c(CNC2(c3cnccc3-c3ccccc3OC3CC3)CC2)c1)C(=O)[C@@H](O)[C@@H](O)[C@H](O)[C@@H](O)CO [Compound I-587, ethyl N-{2-[(2S,3S,4R,5S)-N-[3-({4-chloro-3-[({1-[4-(2-cyclopropoxyphenyl)pyridin-3-yl]cyclopropyl}amino)methyl]phenyl}sulfanyl)propyl]-2,3,4,5,6-pentahydroxyhexanamido]ethyl}carbamate]
19 | < 100 | O=C(CCCCCCNS(=O)(=O)c1ccc(Cl)c(COC2(c3cnccc3-c3ccccc3OC3CC3)CC2)c1)NC[C@H](O)[C@@H](O)[C@H](O)[C@H](O)CO [Compound I-432, 7-[4-chloro-3-({1-[4-(2-cyclopropoxyphenyl)pyridin-3-yl]cyclopropoxy}methyl)benzenesulfonamido]-N-[(2S,3R,4R,5R)-2,3,4,5,6-pentahydroxyhexyl]heptanamide]
20 | 126 to 1000 | CC(CCCC(=O)N(C)C[C@H](O)[C@@H](O)[C@H](O)[C@H](O)CO)c1cc(Cl)c(CNC2(c3cnccc3-c3ccccc3OC3CC3)CC2)cc1Cl (stereo partly drawn) [Compound I-379, 5-{2,5-dichloro-4-[({1-[4-(2-cyclopropoxyphenyl)pyridin-3-yl]cyclopropyl}amino)methyl]phenyl}-N-methyl-N-[(2S,3R,4R,5R)-2,3,4,5,6-pentahydroxyhexyl]hexanamide]
21 | < 100 | CC(CCCC(=O)N(CCCO)C[C@H](O)[C@@H](O)[C@H](O)[C@H](O)CO)c1ccc(Cl)c(CNC2(c3cnccc3-c3ccccc3OC3CC3)CC2)c1 (stereo partly drawn) [Compound I-334, 5-{4-chloro-3-[({1-[4-(2-cyclopropoxyphenyl)pyridin-3-yl]cyclopropyl}amino)methyl]phenyl}-N-(3-hydroxypropyl)-N-[(2S,3R,4R,5R)-2,3,4,5,6-pentahydroxyhexyl]hexanamide]
22 | < 100 | CCN(CCCCNC(=O)NC[C@H](O)[C@@H](O)[C@H](O)[C@H](O)CO)S(=O)(=O)c1ccc(Cl)c(CNC2(c3cnccc3-c3ccccc3OC3CC3)CC2)c1 [Compound I-473, 1-(4-{N-ethyl4-chloro-3-[({1-[4-(2-cyclopropoxyphenyl)pyridin-3-yl]cyclopropyl}amino)methyl]benzenesulfonamido}butyl)-3-[(2S,3R,4R,5R)-2,3,4,5,6-pentahydroxyhexyl]urea]
